For 22 compounds, Ki results are on record in patent US6506766B1 (Abbott Laboratories, priority 1998, dated 2003).

The target in experiment [1] is T1, human glucocorticoid receptor-α [GRX] isoform (Homo sapiens, UniProt P04150).
T1 construct: host or cells: insect SF21 cells (baculovirus)
T1 sequence (P04150 1-777): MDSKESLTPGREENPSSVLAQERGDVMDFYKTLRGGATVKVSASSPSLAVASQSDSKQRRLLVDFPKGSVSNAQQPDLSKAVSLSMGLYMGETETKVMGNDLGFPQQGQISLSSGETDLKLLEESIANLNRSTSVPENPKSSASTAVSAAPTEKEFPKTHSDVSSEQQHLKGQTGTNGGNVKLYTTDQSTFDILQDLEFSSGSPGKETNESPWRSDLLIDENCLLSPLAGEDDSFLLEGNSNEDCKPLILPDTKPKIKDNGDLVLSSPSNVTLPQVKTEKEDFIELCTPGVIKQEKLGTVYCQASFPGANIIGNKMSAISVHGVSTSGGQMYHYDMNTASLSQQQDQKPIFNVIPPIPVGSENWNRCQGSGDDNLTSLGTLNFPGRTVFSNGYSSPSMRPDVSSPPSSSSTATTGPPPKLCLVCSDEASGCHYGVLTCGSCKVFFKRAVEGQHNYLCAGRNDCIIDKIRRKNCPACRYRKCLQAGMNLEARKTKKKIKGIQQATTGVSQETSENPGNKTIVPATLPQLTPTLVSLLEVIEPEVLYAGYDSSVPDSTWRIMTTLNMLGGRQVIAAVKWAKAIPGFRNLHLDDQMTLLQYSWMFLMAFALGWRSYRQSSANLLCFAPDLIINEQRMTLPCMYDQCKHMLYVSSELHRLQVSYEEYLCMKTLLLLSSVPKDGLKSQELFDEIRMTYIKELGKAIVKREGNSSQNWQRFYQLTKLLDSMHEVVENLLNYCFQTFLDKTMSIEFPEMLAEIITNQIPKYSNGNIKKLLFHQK
As to the kind of experiment: Radioligand binding with human glucocorticoid receptor cytosol ([3H]-dexamethasone competition). Conditions: GRX cytosol expressed in insect SF21 cells, [3H]-Dex ~0.9 nM, 4° C. overnight; Ki by Cheng-Prusoff, KL ~[…]; read-out: Ki (nM) GR.

In experiment [2] the target is T2, human progesterone receptor-A [PRA] isoform (Homo sapiens, UniProt P06401).
T2 construct: host or cells: insect SF21 cells (baculovirus)
T2 sequence (P06401 1-769 isoform P06401-2): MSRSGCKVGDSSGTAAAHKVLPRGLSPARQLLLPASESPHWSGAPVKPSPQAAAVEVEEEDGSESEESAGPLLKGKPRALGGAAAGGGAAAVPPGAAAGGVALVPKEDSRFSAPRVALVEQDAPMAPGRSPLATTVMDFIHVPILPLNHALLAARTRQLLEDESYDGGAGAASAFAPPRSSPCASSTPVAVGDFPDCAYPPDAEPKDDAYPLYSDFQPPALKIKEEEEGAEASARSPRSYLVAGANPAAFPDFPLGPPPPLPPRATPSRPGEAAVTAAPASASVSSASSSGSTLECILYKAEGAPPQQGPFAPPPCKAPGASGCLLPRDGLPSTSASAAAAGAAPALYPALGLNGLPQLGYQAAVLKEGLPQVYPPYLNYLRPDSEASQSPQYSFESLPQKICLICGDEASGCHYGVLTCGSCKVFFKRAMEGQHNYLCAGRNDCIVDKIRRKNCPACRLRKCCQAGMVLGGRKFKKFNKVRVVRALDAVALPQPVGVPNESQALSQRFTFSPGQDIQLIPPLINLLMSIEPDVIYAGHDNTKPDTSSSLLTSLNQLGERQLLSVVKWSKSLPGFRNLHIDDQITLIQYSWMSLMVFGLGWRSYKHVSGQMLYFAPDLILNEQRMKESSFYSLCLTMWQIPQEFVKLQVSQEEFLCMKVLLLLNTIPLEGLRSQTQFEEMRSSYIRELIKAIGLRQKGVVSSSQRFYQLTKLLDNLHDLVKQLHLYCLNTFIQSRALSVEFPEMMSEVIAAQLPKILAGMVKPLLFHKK
The experiment can be described thus: Radioligand binding with human progesterone receptor cytosol ([3H]-progesterone competition). Particulars: PRA cytosol expressed in insect SF21 cells, [3H]Prog ~0.8 nM, 4° C. overnight; Ki by Cheng-Prusoff, KL ~4.5 nM; read-out: Ki (nM) PR.

Turning to `C=CCC1Oc2ccc(Cl)c(OC(F)F)c2-c2ccc3c(c21)C(C)=CC(C)(C)N3` (centres unmarked) [Example 230, 5-(3-Propenyl)-9-chloro-10-difluoromethoxy-2,2,4-trimethyl-2,5-dihydro-1H-[1]benzopyrano[3,4-f]quinoline], the Ki (in general, the dissociation constant of the complex between target and ligand, obtained from inhibition or displacement) came out at 2.4 nM in experiment [1] and 50.3 nM in experiment [2].

In the case of `CC1=CC(C)(C)Nc2ccc3c(c21)C(c1ccccc1)Oc1ccc(Cl)c(OC(F)F)c1-3` (centres unmarked) [Example 231, 9-Chloro-10-difluoromethoxy-5-phenyl-2,2,4-trimethyl-2,5-dihydro-1H-[1]benzopyrano[3 4-f]quinoline], the Ki is 30.2 nM in experiment [1] and 1870 nM in experiment [2].

`COc1cc(F)cc2c1-c1ccc3c(c1C(c1ccccc1)O2)C(C)=CC(C)(C)N3` (centres unmarked) [Example 232, 8-Fluoro-10-methoxy-5-phenyl-2,2,4-trimethyl-2,5-dihydro-1H-[1]benzopyrano[3,4-f]quinoline]: the Ki in experiment [1] is 1.6 nM; in experiment [2], 230 nM.

With `C=CCC1Oc2cc(F)cc(OC)c2-c2ccc3c(c21)C(C)=CC(C)(C)N3` (centres unmarked) [Example 233, 5-(3-Propenyl)-8-fluoro-10-methoxy-2,2,4-trimethyl-2,5-dihydro-1H-[1]benzopyrano[3,4-f]quinoline], the Ki in experiment [1] amounted to 2.5 nM; in experiment [2], 350 nM.

As for `C=CCC1Oc2ccc(O)c(OC)c2-c2ccc3c(c21)C(C)=CC(C)(C)N3` (centres unmarked) [Example 235, 10-Methoxy-9-hydroxy-5-(3-propenyl)-2,2,4-trimethyl-1H-2,5-dihydro-[1]benzopyrano[3,4-f]quinoline], the inhibition constant (Ki) in experiment [1] turned out to be 0.94 nM; in experiment [2], 155 nM.

`COc1c(O)ccc2c1-c1ccc3c(c1[C@@H]([C@@H]1C=C(C)CCC1)O2)C(C)=CC(C)(C)N3` [Example 240, (+)(5R,3′S)-9-Hydroxy-5-[1-methyl-3-cyclohexenyl]-10-methoxy-2,2,4-trimethyl-2,5-dihydro-1H-[1]benzopyrano[3,4-f]quinoline]: the figures for the inhibitory constant (Ki) in experiment [1] and in experiment [2] were 52.2 nM and 2170 nM, respectively.

`COc1c(O)ccc2c1-c1ccc3c(c1[C@H]([C@@H]1C=CCCCC1)O2)C(C)=CC(C)(C)N3` [Example 246, (−)(5S,3′S)2,5-Dihydro-9-hydroxy-10-methoxy-2,2,4-trimethyl-5-(3-cycloheptenyl)-1H-[1]benzopyrano[3,4-f]quinoline]: the Ki was determined as 0.87 nM in experiment [1] and 113 nM in experiment [2].

With `COc1c(O)ccc2c1-c1ccc3c(c1[C@H]([C@H]1C=CCCCC1)O2)C(C)=CC(C)(C)N3` [Example 247, (−)(5S,3′R)2,5-Dihydro-9-hydroxy-10-methoxy-2,2,4-trimethyl-5-(3-cycloheptenyl)-1H-[1]benzopyrano[3,4-f]quinoline], the Ki worked out at 0.86 nM in experiment [1] and 195 nM in experiment [2].

For the compound `COc1c(O)ccc2c1-c1ccc3c(c1C(c1ccccc1)O2)C(C)=CC(C)(C)N3` (centres unmarked) [Example 248, 2,5-Dihydro-9-hydroxy-10-methoxy-2,2,4-trimethyl-5-phenyl-1H-[1]benzopyrano[3,4-f]quinoline], the Ki in experiment [1] stood at 1 nM; in experiment [2], 870 nM.

On to `COc1c(O)ccc2c1-c1ccc3c(c1C(c1cc(F)cc(F)c1)O2)C(C)=CC(C)(C)N3` (centres unmarked) [Example 249, 2,5-Dihydro-9-hydroxy-10-methoxy-2,2,4-trimethyl-5-(3,5-difluorophenyl)-1H-[1]benzopyrano[3,4-f]quinoline], for which the Ki in experiment [1] came out at 0.8 nM; in experiment [2], 488 nM.

In the case of `COc1c(O)ccc2c1-c1ccc3c(c1C(c1cc(F)c(F)c(F)c1)O2)C(C)=CC(C)(C)N3` (centres unmarked) [Example 250, 2,5-Dihydro-9-hydroxy-10-methoxy-2,2,4-trimethyl-5-(3,4,5-trifluorophenyl)-1H-[1]benzopyrano[3,4-f]quinoline], the Ki is 2.4 nM in experiment [1] and 1470 nM in experiment [2].

In the case of `COc1c(O)ccc2c1-c1ccc3c(c1[C@H]([C@@H]1C=CCC1)O2)C(C)=CC(C)(C)N3` [Example 252], the results for the Ki in experiment [1] and in experiment [2] were 0.39 nM and 102 nM, respectively.

Take `COc1c(O)ccc2c1-c1ccc3c(c1[C@H]([C@H]1C=CCC1)O2)C(C)=CC(C)(C)N3` [Example 253, (−)(5S,3′R)2,5-Dihydro-9-hydroxy-10-methoxy-2,2,4-trimethyl-5-(3-cyclopentenyl)-1H-[1]benzopyrano[3,4-f]quinoline]: the values for the inhibition constant Ki in experiment [1] and in experiment [2] were 0.38 nM and 42 nM, respectively.

With `COc1c(O)ccc2c1-c1ccc3c(c1C(c1ccc(F)cc1)O2)C(C)=CC(C)(C)N3` (centres unmarked) [Example 255, 2,5-Dihydro-9-hydroxy-10-methoxy-2,2,4-trimethyl-5-(4-fluorophenyl)-1H-[1]benzopyrano[3,4-f]quinoline], the inhibitory constant (Ki) in experiment [1] was determined as 1.5 nM; in experiment [2], 1430 nM.

As to `COc1c(O)ccc2c1-c1ccc3c(c1C(c1cccc(C(F)(F)F)c1)O2)C(C)=CC(C)(C)N3` (centres unmarked) [Example 256, 2,5-Dihydro-9-hydroxy-10-methoxy-2,2,4-trimethyl-5-(3-trifluoromethylphenyl)-1H-[1]benzopyrano[3,4-f]quinoline], the Ki in experiment [1] was 3.8 nM; in experiment [2], 266 nM.

In the case of `COc1c(O)ccc2c1-c1ccc3c(c1C(c1cc(C(F)(F)F)cc(C(F)(F)F)c1)O2)C(C)=CC(C)(C)N3` (centres unmarked) [Example 257, 2,5-Dihydro-9-hydroxy-10-methoxy-2,2,4-trimethyl-5-(3-5-bistrifluoromethylphenyl)-1H-[1]benzopyrano[3,4-f]quinoline], the Ki in experiment [1] came out at 10 nM; in experiment [2], 1620 nM.

For the compound `COc1c(O)ccc2c1-c1ccc3c(c1C(c1ccc(Cl)c(C(F)(F)F)c1)O2)C(C)=CC(C)(C)N3` (centres unmarked) [Example 258, 2,5-Dihydro-9-hydroxy-10-methoxy-2,2,4-trimethyl-5-(3-trifluoromethyl-4-chlorophenyl)-1H-[1]benzopyrano[3,4-f]quinoline], the Ki is 10.7 nM in experiment [1] and 879 nM in experiment [2].

As for `COc1c(O)ccc2c1-c1ccc3c(c1C(CC(C)C)O2)C(C)=CC(C)(C)N3` (centres unmarked) [Example 259, 2,5-Dihydro-9-hydroxy-10-methoxy-2,2,4-trimethyl-5-(2-methylpropyl)-1H-[1]benzopyrano[3,4-f]quinoline], the Ki in experiment [1] came out at 1.2 nM; in experiment [2], 938 nM.

Take `C=CCCC1Oc2ccc(O)c(OC)c2-c2ccc3c(c21)C(C)=CC(C)(C)N3` (centres unmarked) [Example 261, 2,5-Dihydro-9-hydroxy-10-methoxy-2,2,4-trimethyl-5-(3-butenyl)-1H-[1]benzopyrano[3,4-f]quinoline]: the Ki is 0.75 nM in experiment [1] and 161 nM in experiment [2].

`COc1c(O)ccc2c1-c1ccc3c(c1C(Cc1ccccc1)O2)C(C)=CC(C)(C)N3` (centres unmarked) [Example 262, 2,5-Dihydro-9-hydroxy-10-methoxy-5-(phenylmethyl)-2,2,4-trimethyl-1H-[1]benzopyrano[3,4-f]quinoline]: the Ki in experiment [1] worked out at 1.1 nM; in experiment [2], 150 nM.

Take `COc1c(O)ccc2c1-c1ccc3c(c1[C@H](C1CCCC1)O2)C(C)=CC(C)(C)N3` [Example 264, (−)(S)5-Cyclopentyl-2,5-dihydro-9-hydroxy-10-methoxy-2,2,4-trimethyl-1H-[1]benzopyrano[3,4-f]quinoline]: the Ki in experiment [1] was 0.51 nM; in experiment [2], 307 nM.

Consider `C#CCC1Oc2ccc(O)c(OC)c2-c2ccc3c(c21)C(C)=CC(C)(C)N3` (centres unmarked) [Example 266, 2,5-Dihydro-9-hydroxy-10-methoxy-5-(3-propynyl)-2,2,4-trimethyl-1H-[1]benzopyrano[3,4-f]quinoline], for which the results for the Ki in experiment [1] and in experiment [2] were 0.71 nM and 102 nM, respectively.
